From patent US20250090441A1, “ANTI-CARIES PEPTIDES WITH ANTIMICROBIAL AND REMINERALIZING PROPERTIES AND METHODS THEREOF” (THE UNIVERSITY OF HONG KONG, priority 2023, published 2025)
In brackets after ≈: the same amount, converted by molar mass. Where a SMILES comes first, the peptide text is derived from it.

How the values were obtained:
[1] = system: Candida albicans, ATCC 90028; format: cell-based
Experimental: (§1) The antimicrobial properties of synthesized peptides against bacteria and fungi were evaluated using minimum inhibitory concentration (MIC) and minimum bactericidal/fungicidal concentration (MBC/MFC) tests (Wiegand et al. 2008). The tested species include Streptococcus mutans, UA159; Lacticaseibacillus casei, American Type Culture Collection (ATCC) 334; and Candida albicans, ATCC 90028. A 10 μL aliquot of bacterial culture (10^6 CFU/mL) in brain heart infusion (BHI) broth was added to 100 μL serial two-fold dilutions of experimental solutions. The optical density values at 660 nm were measured after 18 h of incubation. To determine the MBC, 10 μL of bacterial culture was taken from the well of MIC, and wells before and after the well of MIC, and transferred to blood agar. The test protocol for fungi was similar: the culture medium was a Roswell Park Memorial Institute (RPMI) 1640 Medium, the absorbance was measured at 520 nm, and Sabouraud dextrose agar was used for the MFC test. Chlorhexidine and medium were used as the positive and negative controls.

[2] = system: S. mutans biofilm (ATCC 35668) on dentine blocks; assay: Antibiofilm effect on dentine, biofilm remineralization cycling model (CLSM, CFU); format: cell-based, Streptococcus mutans; conditions: 160 μM GAPI, 7 days cycling, n = 8
From the text: Dentine slices, 2 mm thick, were cut from sound extracted third molars. Ultra-fine 4000-grit sandpaper was used to polish these slices. Slices with defects were eliminated based on a stereomicroscope observation. A total of forty dentine slices were selected. Each slice was separated into two blocks and assigned to two groups. Nail varnish was used to coat half of the blocks as an internal control. S. mutans American Type Culture Collection 35668 was utilized in the present study. All the dentine blocks were placed into S. mutans culture (10^8 cells/mL) in a brain-heart infusion (BHI) broth containing 5% glucose to generate artificial caries. After a 3-day anaerobic culture at 37° C., the depth of the caries lesion surface was around 96 μm, which was observed using micro-computed tomography (micro-CT). […]
CLSM (Fluoview FV 1000, Olympus, Tokyo, Japan) was utilized to capture images to assess the S. mutans biofilm viability (n=8 for each group). […] The red-green ratio represented the dead-live ratio calculated using Image J version 1.53 t (National Institute of Health, Bethesda, MD, USA).
To determine the S. mutans biofilm growth kinetics, the colony-forming units (CFUs) were counted (n=8 for each group). […] All the plates were cultured anaerobically for 48 h at 37° C. before the CFUs were counted. The log CFU was calculated for a statistical analysis.

[3] = Effect on hard tissue, biofilm remineralization cycling model (micro-CT, FTIR); conditions: carious dentine, 160 μM GAPI
From the text: Dentine slices, 2 mm thick, were cut from sound extracted third molars. Ultra-fine 4000-grit sandpaper was used to polish these slices. Slices with defects were eliminated based on a stereomicroscope observation. A total of forty dentine slices were selected. Each slice was separated into two blocks and assigned to two groups. Nail varnish was used to coat half of the blocks as an internal control. S. mutans American Type Culture Collection 35668 was utilized in the present study. All the dentine blocks were placed into S. mutans culture (10^8 cells/mL) in a brain-heart infusion (BHI) broth containing 5% glucose to generate artificial caries. After a 3-day anaerobic culture at 37° C., the depth of the caries lesion surface was around 96 μm, which was observed using micro-computed tomography (micro-CT).
Two blocks from the same slice were assigned to the GAPI group (160 μM GAPI) and control group (deionized water) separately. All the blocks underwent a biochemical model involving chemical remineralization and an S. mutans biofilm challenge for seven days. The remineralization solution (pH 7.0) consisted of 1.5 mm calcium chloride, 150 mm potassium chloride, 0.9 mm potassium dihydrogen phosphate, and 20 mm 4-(2-hydroxyethyl)-1-piperazineethanesulfonic acid. The cycling process included 8 h of immersion in the remineralization solution and 16 h of immersion in an S. mutans biofilm medium.
Micro-CT (SkyScan 1272, Antwerp, Belgium) was employed to evaluate the lesion depths and mineral losses (n=8 for each group). The X-ray source parameters were set at an 80 kV voltage and 100 μA current with an image pixel size of 10 μm. Moreover, two standard mineral cylindrical phantoms (Bruker, Kontich, Belgium) with mineral density values (MDVs, gHApcm^−3) of 0.25 gHApcm^−3 and 0.75 gHApcm^−3 were scanned to calibrate the blocks' greyscales. The NRecon reconstruction software (Version 1.7.4.6, SkyScan, Antwerp, Belgium) was utilized to reconstruct the scanning images. The CTAn data analysis software (CTAn version 1.20.3.0, Skyscan NV, Kontich, Belgium) was employed to analyze the cross-sectional images. The lesion depths were measured, and the images' greyscale values were calibrated. Subsequently, the demineralized and control areas were calculated into the MDV for each block. The mineral loss was determined as the difference between the MDV of the control and the MDV of the demineralized area (Niu et al., 2022).
FTIR (Spectrum Two, PerkinElmer, Waltham, MA, USA) was employed to examine the changes in the dentin's chemical structures (n=8 for each group). […] The ratio of the HPO4^2− to amide I absorbance area represented the degree of demineralization in the dentin.

[4] = Stability in human saliva (HPLC); format: in vitro ADME
Experimental: The stability of peptides in human saliva was investigated by testing the remaining peptide concentration via HPLC system (Waters Pacific Pte Ltd, Singapore). The saliva with peptides was mixed and incubated for 0, 15, 30, 45 and 60 min. The test was processed following a previous experimental protocol (Huang et al. 2016).

[5] = system: Streptococcus mutans, UA159; assay: MIC and MBC/MFC test; format: cell-based
Experimental: as §1

[6] = system: Lacticaseibacillus casei, ATCC 334; assay: MIC and MBC/MFC test; format: cell-based
Experimental: as §1

[7] = 7 days cycling, micro-CT, n = 8
[8] = Streptococcus mutans (UA159), μM

`CC(C)[C@@H]1NC(=O)[C@H](CCCN=C(N)N)NC(=O)[C@H](Cc2ccccc2)NC(=O)[C@@H](NC(=O)[C@H](Cc2c[nH]c3ccccc23)NC(=O)[C@H](CCCN=C(N)N)NC(=O)[C@H](CCCN=C(N)N)NC(=O)c2cc(O)c(O)c(O)c2)CSSC[C@@H](C(=O)N[C@@H](CCCN=C(N)N)C(=O)O)NC(=O)[C@H](CCCCN)NC(=O)[C@H](CCCN=C(N)N)NC(=O)[C@H](Cc2ccc(O)cc2)NC(=O)[C@@H]2CSSC[C@H](NC1=O)C(=O)N[C@@H](Cc1ccc(O)cc1)C(=O)N[C@@H](CCCN=C(N)N)C(=O)NCC(=O)N[C@@H](Cc1ccccc1)C(=O)N2` [GAPI, Gallic-Acid-Polyphemusin-I] (HELM PEPTIDE1{[O=C(c1cc(O)c(O)c(O)c1)[*:2]].R.R.W.C.F.R.V.C.Y.R.G.F.C.Y.R.K.C.R}$PEPTIDE1,PEPTIDE1,5:R3-18:R3|PEPTIDE1,PEPTIDE1,9:R3-14:R3$$$V2.0) gave a minimum inhibitory concentration [1] of 80 µM (≈ 209 µg/mL), an MBC/MFC ([1]; μM) of 40 and an MIC ([1]; μM) of 20. The “Viability: Dead-to-live ratio” value ([2]; CLSM) was 0.77±0.13, the “Kinectics: Log10 CFU” value [2] was 7.45±0.32 and the lesion depths [3] was 151±18 μm. The “Hydrogen phosphate-to-amide I ratio” value ([3]; 7 days cycling, FTIR, n = 8) was 2.92±0.82, the Lesion depth [3, 7] was 151 ± 18 μm and the Mineral loss [3, 7] was 0.91±0.07 gHAcm^−3. For the same compound, the “stable in saliva (time)” value [4] was “at least 60 min”, the remaining at 0.25 h ([4]; human, 15 min, read-out: remaining percentage after incubation in human saliva) was 98.9% and the remaining at 0.5 h ([4]; human, 30 min, read-out: remaining percentage after incubation in human saliva) was 98.6%. It also gave a remaining at 0.75 h ([4]; human, 45 min, read-out: remaining percentage after incubation in human saliva) of 96.8%, a remaining at 1 h ([4]; human, 60 min, read-out: remaining percentage after incubation in human saliva) of 94.4% and a minimum inhibitory concentration ([5]; Streptococcus mutans) of 40 µM (≈ 104 µg/mL). The MBC/MFC [5, 8] was 80, the MIC [5, 8] was 40 and the minimum inhibitory concentration [6] was 40 µM (≈ 104 µg/mL). It also gave an MBC/MFC ([6]; μM) of 160 and an MIC ([6]; μM) of 40.
